Source: article PMC12440824, “Chimeric deubiquitinase engineering reveals structural basis for specific inhibition of the mitophagy regulator USP30” (Nature Structural & Molecular Biology, 2025)
Where “and” joins values, the source holds several entries; their conditions need not be identical. Equal entries are not always repeated. Where two headings read alike, the source gives them in different places.

Experiments:
USP30^ch3 F453Y [1] = target: T1, USP30^ch3 F453Y (Homo sapiens, UniProt Q70CQ3, F453Y, form not given); test: Ub–RhoG cleavage enzyme inhibition assay, chimera 3 F453Y; assay type: biochemical; design: USP30ch3 F453Y activity / USP30ch3 F453Y activity (ED Fig. 7e series): scale not given here; settings: for reduction of inhibition potency by F453Y substitution (specificity window vs WT): USP30^ch3 F453Y vs WT; for USP30ch3 F453Y activity (ED Fig. 7e series) / USP30ch3 F453Y activity: mean n=3; for USP30ch3 F453Y activity: Fig. 4e,g
Protocol: Enzyme kinetics were performed in black, low-volume, non-binding-surface 384-well plates. […] Next, 10 µl of 2× enzyme solution was added in triplicate to the plate. The reaction was started by adding 10 µl of 2× substrate solution. […] Inhibitor solution (4×) was added to 4× enzyme solution to create a 2× enzyme–inhibitor mixture. Next, 10 µl of this 2× enzyme–inhibitor mixture was then added to the plate in triplicate, and the plate was incubated at room temperature for 90 min. The reaction was started by adding 10 µl of 2× Ub–RhoG substrate. […] Data were analyzed with GraphPad Prism.

USP30^c1 = target: T2, USP30^c1 (Homo sapiens, UniProt Q70CQ3, DEL179-208/DEL211-214/DEL358-428/F348D/I353E/M350S/N216S/S215G); test: Thermal shift assay, USP30 c1; assay type: binding; settings: for Tm in presence of compound, USP30^c1: 20 μM inhibitor
T2 sequence (Q70CQ3 with tags, fused parts or gaps DEL179-208/DEL211-214/S215G/N216S/F348D/M350S/I353E/DEL358-428): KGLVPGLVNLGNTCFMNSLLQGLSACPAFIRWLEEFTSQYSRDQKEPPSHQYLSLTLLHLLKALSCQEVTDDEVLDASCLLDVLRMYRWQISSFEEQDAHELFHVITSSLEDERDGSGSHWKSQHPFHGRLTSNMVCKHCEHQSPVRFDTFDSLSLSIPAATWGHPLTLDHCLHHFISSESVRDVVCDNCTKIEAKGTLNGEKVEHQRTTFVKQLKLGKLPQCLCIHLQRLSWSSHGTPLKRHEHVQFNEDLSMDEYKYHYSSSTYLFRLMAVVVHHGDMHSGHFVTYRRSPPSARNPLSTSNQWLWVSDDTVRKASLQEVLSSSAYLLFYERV
Protocol: (§1) The thermal stability of USP30 constructs and effects of either inhibitor or Ub-PA binding were determined by thermal shift assays. Inhibitor, Ub-PA and SYPRO orange dye (Sigma, 5,000× stock in DMSO) solutions were prepared in 1× PBS, 4 mM DTT. Inhibitor/Ub-PA was prediluted to 100 µM, and SYPRO orange dye was prediluted to 50× (from the commercial stock). Mixtures of protein, inhibitor/Ub-PA and SYPRO were prepared with inhibitor/Ub-PA at a final concentration of 20 μM, SYPRO at a final concentration of 4× and protein at a final concentration of 2 μM for c1, 4 μM for ch1, ch4 and c2 and 3 μM for ch2 and ch3. Samples were added in triplicate to a white 96-well PCR plate (Bio-Rad). Fluorescence intensity was monitored (excitation, 450–490 nm; emission, 560–580 nm) at a gradient of 20–90 °C (increment of 0.3 °C, hold for 5 s before read) on a real-time PCR system (Bio-Rad).

USP30^ch1 = USP30^ch1 (Homo sapiens, UniProt Q70CQ3); test: Thermal shift assay, USP30 ch1; assay type: binding; settings: 20 μM inhibitor
Protocol: as §1

USP30^ch2 = USP30^ch2 (Homo sapiens, UniProt Q70CQ3); test: Thermal shift assay, USP30 ch2; assay type: binding; settings: 20 μM inhibitor
Protocol: as §1

USP30^ch4 = test: Thermal shift assay, USP30 ch4; assay type: binding, human; settings: 20 μM inhibitor; for ΔTm, USP30^ch4: replicates or average
Protocol: as §1

USP30^ch3 F453Y [2] = target: T1, USP30^ch3 F453Y; test: Thermal shift assay, USP30 ch3 F453Y; assay type: binding; settings: 20 μM inhibitor
Protocol: as §1

USP30^ch3 I154A = USP30^ch3 I154A (Homo sapiens, UniProt Q70CQ3, I154A, form not given); test: Thermal shift assay, USP30 ch3 I154A; assay type: binding; settings: 20 μM inhibitor
Protocol: as §1

USP30^ch3 A162S = USP30^ch3 A162S (Homo sapiens, UniProt Q70CQ3, A162S, form not given); test: Thermal shift assay, USP30 ch3 A162S; assay type: binding; settings: 20 μM inhibitor
Protocol: as §1

[3] = test system: T3, Flag-tagged, full-length USP30 (wild type) in HEK293 cells; test: Cellular ubiquitin probe competition, overexpressed Flag-tagged full-length USP30 wild type; assay type: cell-based, human; settings: 2 µM compound, 2 h; HA-Ub-PA probe in lysate
T3 construct: C-terminally Flag-tagged human USP30 (1–517) was used for transient transfection; expressed in transfected cells; host or cells: HEK293, transient transfection of a pOPINE vector
Protocol: (§2) HEK293 cells (8 × 10^5 cells per well) were seeded in six-well plates and cultivated for 24 h. PEI transfecting reagent (Polysciences) was pre-incubated for 10 min with the vectors in 200 μl Opti-MEM medium (2 µg DNA per well). Cells were transfected and incubated for 48 h. Following the treatment with either compounds or DMSO in fresh medium for an additional 2 h, cells were processed as described below. Cells were seeded at 8 × 10^5 cells per well and grown for 48 h. […] The medium was aspirated, and cells were washed once with ice-cold PBS. Cells were collected by scraping in lysis buffer (150 mM NaCl, 250 mM sucrose, 50 mM Tris, pH 8.0, 5 mM TCEP) supplemented with EDTA-free complete protease inhibitor cocktail and benzonase. Suspended cells were homogenized by 12 bursts of a microtip probe sonicator (Branson Sonifier 450) at 10% amplitude with pulses of 1 s on ice. Remaining cell debris was separated by centrifugation (20,817g, 5 min, 4 °C). […] After incubation for 10 min at room temperature, reactions were quenched by the addition of 4× reducing LDS sample buffer. Samples were resolved by SDS–PAGE and further analyzed via western blot. Using a Trans-Blot Turbo system (Bio-Rad, 1.0 A, 25 V, 30 min), proteins were blotted onto a nitrocellulose membrane. […]

[4] = test system: T4, Flag-tagged, full-length USP30 F453Y in HEK293 cells; test: Cellular ubiquitin probe competition, overexpressed Flag-tagged USP30 F453Y; assay type: cell-based, human; settings: 2 µM compound, 2 h; HA-Ub-PA probe in lysate
T4 construct: C-terminally Flag-tagged human USP30 (1–517) was used for transient transfection; expressed in transfected cells; host or cells: HEK293, transient transfection of a pOPINE vector
Protocol: as §2

[5] = Solubility in aqueous buffers (observation during crystallization); assay type: physicochemical

T1 sequence (Q70CQ3 64-502 F453Y, form open): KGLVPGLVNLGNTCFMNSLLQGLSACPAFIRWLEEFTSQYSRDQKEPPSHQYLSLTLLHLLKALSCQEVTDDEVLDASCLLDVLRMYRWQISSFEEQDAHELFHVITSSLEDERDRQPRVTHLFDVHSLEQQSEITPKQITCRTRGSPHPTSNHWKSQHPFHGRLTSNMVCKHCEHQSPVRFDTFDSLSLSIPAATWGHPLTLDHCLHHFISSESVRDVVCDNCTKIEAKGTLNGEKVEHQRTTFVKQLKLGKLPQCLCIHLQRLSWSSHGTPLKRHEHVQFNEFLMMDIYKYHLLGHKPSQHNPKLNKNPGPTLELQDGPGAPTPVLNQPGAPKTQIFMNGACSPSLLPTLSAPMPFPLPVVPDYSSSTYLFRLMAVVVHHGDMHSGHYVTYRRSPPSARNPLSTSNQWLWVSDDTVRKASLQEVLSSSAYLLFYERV
T1 sequence (P54578 248-318 partner, form open): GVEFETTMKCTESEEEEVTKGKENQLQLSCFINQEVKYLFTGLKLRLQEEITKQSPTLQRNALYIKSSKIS
T1 sequence (Q9P2H5 821-846 partner, form open): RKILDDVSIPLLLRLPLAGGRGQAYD
Sequence of USP30^ch3 I154A (Q70CQ3 64-502 I154A, form open): as the sequence (Q70CQ3 64-502 F453Y, form open) above, with I91A, Y390F counted along it
Sequence of USP30^ch3 I154A (P54578 248-318 partner, form open): as the sequence (P54578 248-318 partner, form open) above
Sequence of USP30^ch3 A162S (Q70CQ3 64-502 A162S, form open): as the sequence (Q70CQ3 64-502 F453Y, form open) above, with A99S, Y390F counted along it
Sequence of USP30^ch3 A162S (P54578 248-318 partner, form open): as the sequence (P54578 248-318 partner, form open) above
Sequence of USP30^ch2 (Q70CQ3 64-502): as the sequence (Q70CQ3 64-502 F453Y, form open) above, with Y390F counted along it
Sequence of USP30^ch2 (P54578 248-318 partner): as the sequence (P54578 248-318 partner, form open) above
Sequence of USP30^ch1 (Q70CQ3 64-502): as the sequence (Q70CQ3 64-502 F453Y, form open) above, with Y390F counted along it
Sequence of USP30^ch1 (Q93009 325-395 partner): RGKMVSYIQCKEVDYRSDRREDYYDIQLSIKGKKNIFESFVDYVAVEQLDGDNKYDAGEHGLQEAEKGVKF

## CC(C)(CO)NS(=O)(=O)c1ccc(NC(=O)[C@H](Cc2ccccc2)NC(=O)c2ccc(F)cc2)cc1 [NK036]
USP30^ch3 F453Y [1]
  reduction of inhibition potency by F453Y substitution (specificity window vs WT): more than two orders of magnitude
USP30^c1
  Tm in presence of compound, USP30^c1: 58.3 °C
USP30^c1; read-out: ΔTm, USP30^c1
  ΔTm at 20 µM: 7.2 °C
USP30^c1; read-out: ΔTm, column headed USP30c1 in sheet Fig. 4f
  ΔTm at 20 µM: 6.1 °C
USP30^ch1
  Tm in presence of compound, USP30^ch1: 55.2 °C
USP30^ch2
  Tm in presence of compound, USP30^ch2: 58.5 °C
USP30^ch4
  Tm in presence of compound, USP30^ch4: 59.2 °C
USP30^ch4; 20 µM
  ΔTm, USP30^ch4: 7.7 °C and 7.6 °C and 7.9 °C
USP30^ch3 F453Y [2]
  Tm in presence of compound, USP30^ch3 F453Y: 58.2 °C
USP30^ch3 I154A
  Tm in presence of compound, USP30^ch3 I154A: 59.0 °C
USP30^ch3 A162S
  Tm in presence of compound, USP30^ch3 A162S: 59.7 °C
[3]
  probe labeling of wild-type Flag-USP30: abolished probe labeling
[4]
  probe labeling of Flag-USP30 F453Y: equally labeled
[5]
  solubility in aqueous buffers: improved

## CC(C)(C)NS(=O)(=O)c1ccc(NC(=O)[C@H](Cc2ccccc2)NC(=O)c2ccc(F)cc2)cc1 [compound 39]
USP30^ch3 F453Y [1]
  reduction of inhibition potency by F453Y substitution (specificity window vs WT): three orders of magnitude
USP30^ch3 F453Y [1]; inhibitor 0.001563 nM
  USP30ch3 F453Y activity (ED Fig. 7e series): 1.055
  USP30ch3 F453Y activity: 0.9971
USP30^ch3 F453Y [1]; inhibitor 0.00625 nM
  USP30ch3 F453Y activity (ED Fig. 7e series): 1.076
  USP30ch3 F453Y activity: 1.054
USP30^ch3 F453Y [1]; inhibitor 0.025 nM
  USP30ch3 F453Y activity (ED Fig. 7e series): 1.018
  USP30ch3 F453Y activity: 1.004
USP30^ch3 F453Y [1]; inhibitor 0.1 nM
  USP30ch3 F453Y activity (ED Fig. 7e series): 0.9989
  USP30ch3 F453Y activity: 0.9561
USP30^ch3 F453Y [1]; inhibitor 0.39 nM
  USP30ch3 F453Y activity (ED Fig. 7e series): 0.8995
  USP30ch3 F453Y activity: 0.9204
USP30^ch3 F453Y [1]; inhibitor 1.56 nM
  USP30ch3 F453Y activity (ED Fig. 7e series): 0.9776
  USP30ch3 F453Y activity: 0.9185
USP30^ch3 F453Y [1]; inhibitor 6.25 nM
  USP30ch3 F453Y activity (ED Fig. 7e series): 0.9466
  USP30ch3 F453Y activity: 0.9079
USP30^ch3 F453Y [1]; inhibitor 25 nM
  USP30ch3 F453Y activity (ED Fig. 7e series): 0.9111
  USP30ch3 F453Y activity: 0.8377
USP30^ch3 F453Y [1]; inhibitor 100 nM
  USP30ch3 F453Y activity (ED Fig. 7e series): 0.8886
  USP30ch3 F453Y activity: 0.7744
USP30^ch3 F453Y [1]; inhibitor 400 nM
  USP30ch3 F453Y activity (ED Fig. 7e series): 0.7448
  USP30ch3 F453Y activity: 0.5461
USP30^ch3 F453Y [1]; inhibitor 1600 nM
  USP30ch3 F453Y activity (ED Fig. 7e series): 0.7279
  USP30ch3 F453Y activity: 0.3171
USP30^c1
  Tm in presence of compound, USP30^c1: 58.9 °C
USP30^c1; read-out: ΔTm, USP30^c1
  ΔTm at 20 µM: 7.8 °C
USP30^ch1
  Tm in presence of compound, USP30^ch1: 56.1 °C
USP30^ch2
  Tm in presence of compound, USP30^ch2: 59.1 °C
USP30^ch4
  Tm in presence of compound, USP30^ch4: 60.3 °C
USP30^ch4; 20 µM
  ΔTm, USP30^ch4: 8.8 °C
USP30^ch4; listed as NK017, 20 µM
  ΔTm, USP30^ch4: 9.0 °C and 8.7 °C (2×)
USP30^ch3 F453Y [2]
  Tm in presence of compound, USP30^ch3 F453Y: 58.5 °C
USP30^ch3 I154A
  Tm in presence of compound, USP30^ch3 I154A: 59.0 °C
USP30^ch3 A162S
  Tm in presence of compound, USP30^ch3 A162S: 60.0 °C
[3]
  probe labeling of wild-type Flag-USP30: abolished probe labeling
[4]
  probe labeling of Flag-USP30 F453Y: equally labeled
[5]
  solubility in aqueous buffers: poor solubility
